Assay results as given in patent US20160368879A1, “PHOTOACID GENERATOR, AND RESIN COMPOSITION FOR PHOTOLITHOGRAPHY” (SAN-APRO LTD., priority 2013, published 2016).

Legend:
Type in all cases: physicochemical
[1] = Molar extinction coefficient of i-line (365 nm), UV-visible absorbance in acetonitrile; conditions: 0.25 mmol/L in acetonitrile, cell length 1 cm
Experimental: The synthesized photoacid generator was diluted to 0.25 mmol/L with acetonitrile, and using an ultraviolet-visible spectrophotometer (UV-2550 available from SHIMADZU CORPORATION), the absorbance in a range of 200 nm to 500 nm was measured with a cell having an optical path length (a cell length) of 1 cm. The molar extinction coefficient of i-line (365 nm) (ε365) was calculated from the following equation.
[In the equation, […] represents the absorbance at 365 nm.]

[2] = Thermal decomposition temperature (TG/DTA, 2% weight reduction); conditions: point of 2% weight reduction; 10° C./minute from 30° C. to 500° C.; nitrogen atmosphere
Experimental: The synthesized photoacid generator was measured for the change in weight under a temperature increasing condition of 10° C./minute from 30° C. to 500° C. under a nitrogen atmosphere using a thermal gravimetric/differential thermal analyzer (TG/DTA 6200, available from Seiko Instruments Inc.), and a point where the weight was reduced by 2% was defined as the thermal decomposition temperature.

[3] = Solvent solubility (butyl acetate, toluene or PGMEA); conditions: 25° C.
Experimental: In a test tube, 0.1 g of the synthesized photoacid generator was placed, and an organic solvent (butyl acetate, toluene or PGMEA) was added thereto in 0.2 g portions under a condition where the temperature was adjusted to 25° C. until the photoacid generator was completely dissolved. In this connection, in the case where the photoacid generator was not completely dissolved even when 20 g of the solvent was added, the photoacid generator was evaluated as one that was not dissolved.

| SMILES | Molar extinction coefficient [1] | Thermal decomposition temperature [2] | Solvent solubility PGMEA [3] | Solvent solubility Butyl acetate [3] | Solvent solubility Toluene [3] |
| --- | --- | --- | --- | --- | --- |
| C[Si](C)(C)c1ccc2c3c(cccc13)C(=O)N(OS(=O)(=O)C(F)(F)F)C2=O [Example A-18, 4-trimethylsilyl-1,8-naphthalimide trifluoromethanesulfonate] | 5500 L/mol/cm | 240 °C | 8 wt % | 7.5 wt % | 9 wt % |
| O=C1c2cccc3c(Cl)ccc(c23)C(=O)N1OS(=O)(=O)C(F)(F)F [Example A-19, 4-chloro-1,8-naphthalimide trifluoromethanesulfonate] | 6000 L/mol/cm | 220 °C | 6 wt % | 5 wt % | 10 wt % |
| O=C1c2cccc3c(Br)ccc(c23)C(=O)N1OS(=O)(=O)C(F)(F)F [Example A-20, 4-bromo-1,8-naphthalimide trifluoromethanesulfonate] | 8500 L/mol/cm | 230 °C | 4 wt % | 4.5 wt % | 8 wt % |
| CCCCC(CC)C(=O)Oc1cc2c3c(cccc3c1)C(=O)N(OS(=O)(=O)c1c(F)c(F)c(F)c(F)c1F)C2=O (stereo not shown) [Example A-29, 3-(2-ethylhexanoyloxy)-1,8-naphthalimide pentafluorobenzenesulfonate] | 1500 L/mol/cm | 230 °C | 18 wt % | 25 wt % | 23 wt % |
| CCCC(=O)Oc1cc2c3c(cccc3c1)C(=O)N(OS(=O)(=O)c1c(F)c(F)c(F)c(F)c1F)C2=O [Example A-30, 3-butyroyloxy-1,8-naphthalimide pentafluorobenzenesulfonate] | 1600 L/mol/cm | 235 °C | 14 wt % | 18 wt % | 20 wt % |
| O=C(Oc1cc2c3c(cccc3c1)C(=O)N(OS(=O)(=O)c1c(F)c(F)c(F)c(F)c1F)C2=O)c1c(F)c(F)c(F)c(F)c1F [Example A-32, 3-pentafluorobenzoyloxy-1,8-naphthalimide pentafluorobenzenesulfonate] | 1300 L/mol/cm | 244 °C | 19 wt % | 24 wt % | 22 wt % |
| CC(C)(C)c1cc2c3c(cc(C(C)(C)C)cc3c1)C(=O)N(OS(=O)(=O)c1c(F)c(F)c(F)c(F)c1F)C2=O [Example A-33, 3,6-di-tert-butyl-1,8-naphthalimide pentafluorobenzenesulfonate] | 6500 L/mol/cm | 245 °C | 6 wt % | 6.5 wt % | 6 wt % |
| CC(C)(C)Cc1cc2c3c(cc(CC(C)(C)C)cc3c1)C(=O)N(OS(=O)(=O)c1c(F)c(F)c(F)c(F)c1F)C2=O [Example A-34, 3,6-dineopentyl-1,8-naphthalimide pentafluorobenzenesulfonate] | 6200 L/mol/cm | 250 °C | 11 wt % | 14 wt % | 8 wt % |
| O=C1c2cc(C34CC5CC(CC(C5)C3)C4)cc3cc(C45CC6CC(CC(C6)C4)C5)cc(c23)C(=O)N1OS(=O)(=O)c1c(F)c(F)c(F)c(F)c1F [Example A-35, 3,6-diadamantyl-1,8-naphthalimide pentafluorobenzenesulfonate] | 6000 L/mol/cm | 251 °C | 5.5 wt % | 6 wt % | 9 wt % |
| O=C1c2cccc3c(C(F)(F)C(F)(F)C(F)(F)C(F)(F)C(F)(F)C(F)(F)C(F)(F)C(F)(F)F)ccc(c23)C(=O)N1OS(=O)(=O)c1c(F)c(F)c(F)c(F)c1F [Example A-37, 4-(heptadecafluoro-n-octyl)-1,8-naphthalimide pentafluorobenzenesulfonate] | 80 L/mol/cm | 244 °C | 23 wt % | 25 wt % | 28 wt % |

Continued, values first:

| Molar extinction coefficient [1] | Thermal decomposition temperature [2] | Solvent solubility PGMEA [3] | Solvent solubility Butyl acetate [3] | Solvent solubility Toluene [3] | SMILES |
| --- | --- | --- | --- | --- | --- |
| 16300 L/mol/cm | 236 °C | 4.5 wt % | 4 wt % | 3.5 wt % | CC(C)Oc1ccc2c3c(cccc13)C(=O)N(OS(=O)(=O)c1c(F)c(F)c(F)c(F)c1F)C2=O [Example A-21, 4-isopropoxy-1,8-naphthalimide pentafluorobenzenesulfonate] |
| 14000 L/mol/cm | 240 °C | 3 wt % | 3.5 wt % | 6 wt % | CCCOc1ccc2c3c(cccc13)C(=O)N(OS(=O)(=O)c1c(F)c(F)c(F)c(F)c1F)C2=O [Example A-22, 4-n-propoxy-1,8-naphthalimide pentafluorobenzenesulfonate] |
| 12000 L/mol/cm | 232 °C | 7 wt % | 7.5 wt % | 10 wt % | O=C1c2cccc3c(OCC(F)(F)C(F)F)ccc(c23)C(=O)N1OS(=O)(=O)c1c(F)c(F)c(F)c(F)c1F [Example A-23, 4-(2,2,3,3-tetrafluoro-1-propoxy)-1,8-naphthalimide pentafluorobenzenesulfonate] |
| 3000 L/mol/cm | 242 °C | 3.2 wt % | 3.5 wt % | 5.5 wt % | O=C(Cc1ccccc1)c1ccc2c3c(cccc13)C(=O)N(OS(=O)(=O)c1c(F)c(F)c(F)c(F)c1F)C2=O [Example A-24, 4-phenylacetyl-1,8-naphthalimide pentafluorobenzenesulfonate] |
| 12000 L/mol/cm | 247 °C | 11 wt % | 14 wt % | 13 wt % | O=C1c2cccc3c(Oc4c(F)c(F)c(F)c(F)c4F)ccc(c23)C(=O)N1OS(=O)(=O)c1c(F)c(F)c(F)c(F)c1F [Example A-25, 4-pentafluorophenoxy-1,8-naphthalimide pentafluorobenzenesulfonate] |
| 16000 L/mol/cm | 241 °C | 9 wt % | 11 wt % | 10 wt % | O=C1c2cccc3c(Oc4cccc(C(F)(F)F)c4)ccc(c23)C(=O)N1OS(=O)(=O)c1c(F)c(F)c(F)c(F)c1F [Example A-26, 4-(3-trifluoromethylphenoxy)-1,8-naphthalimide pentafluorobenzenesulfonate] |
| 20000 L/mol/cm | 242 °C | 4 wt % | 5.5 wt % | 5.5 wt % | O=C1c2cccc3c(Sc4ccccc4)ccc(c23)C(=O)N1OS(=O)(=O)c1c(F)c(F)c(F)c(F)c1F [Example A-27, 4-phenylthio-1,8-naphthalimide pentafluorobenzenesulfonate] |
| 7500 L/mol/cm | 240 °C | 5 wt % | 6.5 wt % | 6 wt % | COc1cc2c3c(cccc3c1)C(=O)N(OS(=O)(=O)c1c(F)c(F)c(F)c(F)c1F)C2=O [Example A-28, 3-methoxy-1,8-naphthalimide pentafluorobenzenesulfonate] |
| 1400 L/mol/cm | 243 °C | 16 wt % | 20 wt % | 18 wt % | O=C(Oc1cc2c3c(cccc3c1)C(=O)N(OS(=O)(=O)c1c(F)c(F)c(F)c(F)c1F)C2=O)c1ccccc1 [Example A-31, 3-benzoyloxy-1,8-naphthalimide pentafluorobenzenesulfonate] |
| 40 L/mol/cm | 239 °C | 13 wt % | 14 wt % | 11 wt % | O=C1c2cccc3c(C(F)(F)C(F)(F)C(F)(F)C(F)(F)F)ccc(c23)C(=O)N1OS(=O)(=O)c1c(F)c(F)c(F)c(F)c1F [Example A-36, 4-(nonafluorobutyl)-1,8-naphthalimide pentafluorobenzenesulfonate] |
